In the first assay the target is Human Factor D (Homo sapiens (Human), UniProt P00746). As to the kind of experiment: Human Factor D Assay. It counts as biochemical.
Chain of Human Factor D (P00746 26-253): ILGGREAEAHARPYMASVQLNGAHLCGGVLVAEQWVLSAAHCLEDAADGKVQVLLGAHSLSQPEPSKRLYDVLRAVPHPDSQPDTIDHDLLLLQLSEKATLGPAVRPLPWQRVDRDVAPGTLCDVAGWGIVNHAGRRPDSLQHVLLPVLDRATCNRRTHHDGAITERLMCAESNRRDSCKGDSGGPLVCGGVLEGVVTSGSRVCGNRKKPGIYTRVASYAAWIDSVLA
Conditions: not given
The gist of the method:
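Thioesterase activity monitored with Z-L-Lys-SBzl plus Ellman's reagent (DTNB), each 100 μM final, after 5 min room-temperature compound preincubation of 80 nM human serum Factor D in pH 7.5 Tris (50 mM)/1M NaCl.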
In general, IC50 refers to the concentration that inhibits the measured activity by half. `CC(=O)c1nn(CC(=O)N2C[C@H](F)C[C@H]2C(=O)NC2CCN(C(=O)c3cn[nH]c3)CC2)c2ccc(-c3cnc(C)nc3)cc12` [Compound 261, (2S,4R)-N-(1-(1H-pyrazole-4-carbonyl)piperidin-4-yl)-1-(2-(3-acetyl-5-(2-methylpyrimidin-5-yl)-1H-indazol-1-yl)acetyl)-4-fluoropyrrolidine-2-carboxamide] returned an IC50 of 1000 to 10000 nM.

Staying with this assay, now noted: Human Factor D assay of Example 8; Table 2; read-out: IC50.
For `CC(=O)c1nn(CC(=O)N2C[C@H](F)C[C@H]2C(=O)Nc2cccc(Br)n2)c2ccc(-c3ccn4nccc4n3)cc12` [Compound 242, (2S,4R)-1-(2-(3-acetyl-5-(pyrazolo[1,5-a]pyrimidin-5-yl)-1H-indazol-1-yl)acetyl)-N-(6-bromopyridin-2-yl)-4-fluoropyrrolidine-2-carboxamide], the 50% inhibitory concentration (IC50) was < 1000 nM.

With `CC(=O)c1nn(CC(=O)N2C[C@H](F)C[C@H]2C(=O)Nc2cccc(Br)n2)c2ccc(-c3cnc4cc(C)nn4c3)cc12` [Compound 243, (2S,4R)-1-(2-(3-acetyl-5-(2-methylpyrazolo[1,5-a]pyrimidin-6-yl)-1H-indazol-1-yl)acetyl)-N-(6-bromopyridin-2-yl)-4-fluoropyrrolidine-2-carboxamide], the IC50 was < 1000 nM. Same read-out and setting: next, `CC(=O)c1nn(CC(=O)N2C[C@H](F)C[C@H]2C(=O)Nc2cccc(Br)n2)c2ccc(N3CCn4c(nnc4C(F)(F)F)C3)cc12` [Compound 244, (2S,4R)-1-(2-(3-acetyl-5-(3-(trifluoromethyl)-5,6-dihydro-[1,2,4]triazolo[4,3-a]pyrazin-7(8H)-yl)-1H-indazol-1-yl)acetyl)-N-(6-bromopyridin-2-yl)-4-fluoropyrrolidine-2-carboxamide]: < 1000 nM; `CC(=O)c1nn(CC(=O)N2C[C@H](F)C[C@H]2C(=O)Nc2cccc(Br)n2)c2ccc(-c3cnc4ncccn34)cc12` [Compound 245, (2S,4R)-1-(2-(3-acetyl-5-(imidazo[1,2-a]pyrimidin-3-yl)-1H-indazol-1-yl)acetyl)-N-(6-bromopyridin-2-yl)-4-fluoropyrrolidine-2-carboxamide]: < 1000 nM. The same measure, in the same setting: then `CSc1cccc(NC(=O)[C@@H]2C[C@@H](F)CN2C(=O)Cn2nc(C(C)=O)c3cc(-c4cnc(C)nc4)ccc32)n1` [Compound 246, (2S,4R)-1-(2-(3-acetyl-5-(2-methylpyrimidin-5-yl)-1H-indazol-1-yl)acetyl)-4-fluoro-N-(6-(methylthio)pyridin-2-yl)pyrrolidine-2-carboxamide], with < 1000 nM. Same read-out and setting: then `CC(=O)c1nn(CC(=O)N2C[C@H](F)C[C@H]2C(=O)Nc2cccc(F)n2)c2ccc(-c3cnc(C)nc3)cc12` [Compound 247, (2S,4R)-1-(2-(3-acetyl-5-(2-methylpyrimidin-5-yl)-1H-indazol-1-yl)acetyl)-4-fluoro-N-(6-fluoropyridin-2-yl)pyrrolidine-2-carboxamide], with < 1000 nM; and `CC(=O)c1nn(CC(=O)N2C[C@H](F)C[C@H]2C(=O)Nc2cccc(Br)n2)c2ccc(-c3ccc4ncnn4c3)cc12` [Compound 248, (2S,4R)-1-(2-(5-([1,2,4]triazolo[1,5-a]pyridin-6-yl)-3-acetyl-1H-indazol-1-yl)acetyl)-N-(6-bromopyridin-2-yl)-4-fluoropyrrolidine-2-carboxamide], with < 1000 nM. As for `CC(=O)c1nn(CC(=O)N2C[C@@H](O)C[C@H]2C(=O)Nc2cccc(Br)n2)c2ccc(-c3cnc(C)nc3)cc12` [Compound 249, (2S,4S)-1-(2-(3-Acetyl-5-(2-methylpyrimidin-5-yl)-1H-indazol-1-yl)acetyl)-N-(6-bromopyridin-2-yl)-4-hydroxypyrrolidine-2-carboxamide], the IC50 was < 1000 nM. Still for that read-out and setting: next, `CC(=O)c1nn(CC(=O)N2CC(=O)C[C@H]2C(=O)Nc2cccc(Br)n2)c2ccc(-c3cnc(C)nc3)cc12` [Compound 250, (S)-1-(2-(3-Acetyl-5-(2-methylpyrimidin-5-yl)-1H-indazol-1-yl)acetyl)-N-(6-bromopyridin-2-yl)-4-oxopyrrolidine-2-carboxamide]: < 1000 nM; `NC(=O)c1nn(CC(=O)N2C[C@H](F)C[C@H]2C(=O)Nc2cccc(Br)n2)c2ccc(-c3[nH]nnc3-c3cncnc3)cc12` [Compound 251, 1-(2-((2S,4R)-2-(6-bromopyridin-2-ylcarbamoyl)-4-fluoropyrrolidin-1-yl)-2-oxoethyl)-5-(4-(pyrimidin-5-yl)-1H-1,2,3-triazol-5-yl)-1H-indazole-3-carboxamide]: < 1000 nM. On the same count and under the same terms, then `COCCN(C)CCN1CC(NC(=O)[C@@H]2C[C@@H](F)CN2C(=O)Cn2nc(C(C)=O)c3cc(-c4cnc(C)nc4)ccc32)CC1=O` (stereo partly drawn) [Compound 254, (2S,4R)-1-(2-(3-acetyl-5-(2-methylpyrimidin-5-yl)-1H-indazol-1-yl)acetyl)-4-fluoro-N-(1-(2-((2-methoxyethyl)(methyl)amino)ethyl)-5-oxopyrrolidin-3-yl)pyrrolidine-2-carboxamide], with > 10000 nM; and `CC(=O)c1nn(CC(=O)N2CC(F)(F)C[C@H]2C(=O)Nc2cccc(Br)n2)c2ccc(-c3cnc(C)nc3)cc12` [Compound 255, (S)-1-(2-(3-acetyl-5-(2-methylpyrimidin-5-yl)-1H-indazol-1-yl)acetyl)-N-(6-bromopyridin-2-yl)-4,4-difluoropyrrolidine-2-carboxamide], with < 1000 nM; and `CC(=O)c1nn(CC(=O)N2C[C@H](F)C[C@H]2C(=O)Nc2cccc(OC(F)(F)F)c2F)c2ccc(-c3cnc4cc(C)nn4c3)cc12` [Compound 256, (2S,4R)-1-(2-(3-acetyl-5-(2-methylpyrazolo[1,5-a]pyrimidin-6-yl)-1H-indazol-1-yl)acetyl)-4-fluoro-N-(2-fluoro-3-(trifluoromethoxy)phenyl)pyrrolidine-2-carboxamide], with < 1000 nM. On the same count and under the same terms, next, `CC(=O)c1nn(CC(=O)N2[C@@H]3C[C@@H]3C[C@H]2C(=O)Nc2cccc(Br)n2)c2ccc(-c3cnc4cc(C)nn4c3)cc12` [Compound 257, (1R,3S,5R)-2-(2-(3-acetyl-5-(2-methylpyrazolo[1,5-a]pyrimidin-6-yl)-1H-indazol-1-yl)acetyl)-N-(6-bromopyridin-2-yl)-2-azabicyclo[3.1.0] hexane-3-carboxamide]: < 1000 nM; `CC(=O)c1nn(CC(=O)N2C[C@H](F)C[C@H]2C(=O)Nc2nc(Cl)cs2)c2ccc(-c3cnc(C)nc3)cc12` [Compound 258, (2S,4R)-1-(2-(3-acetyl-5-(2-methylpyrimidin-5-yl)-1H-indazol-1-yl)acetyl)-N-(4-chlorothiazol-2-yl)-4-fluoropyrrolidine-2-carboxamide]: < 1000 nM; `CC(=O)c1nn(CC(=O)N2C[C@H](F)C[C@H]2C(=O)Nc2cccc(Br)n2)c2ccc(-c3cnc(C4CC4)nc3)cc12` [Compound 259]: < 1000 nM. As for `CC(=O)c1nn(CC(=O)N2C[C@H](F)C[C@H]2C(=O)Nc2cccc(Br)n2)c2ccc(-c3cnc(N)nc3)cc12` [Compound 260, (2S,4R)-1-(2-(3-acetyl-5-(2-aminopyrimidin-5-yl)-1H-indazol-1-yl)acetyl)-N-(6-bromopyridin-2-yl)-4-fluoropyrrolidine-2-carboxamide], the concentration for half-maximal inhibition (IC50) is < 1000 nM.
